Reference: the supplement of paper PMC10307832

Legend:
Test in all cases: relative viability (nuclei count vs DMSO), 5 days (fraction); higher = more cells survive
201T = system: 201T
How it was run: (§1)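 Lung cancer cell lines in 1536-well plates got either a single drug or a fixed anchor-drug dose together with five library-drug doses (not always all listed) in √10 steps, by pin tool, on the day after seeding. Nuclei were counted after 5 days, and relative viability is the treated-to-vehicle ratio of nuclei counts. Values are medians of duplicate plates.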

COR-L23 = system: COR-L23
How it was run: as §1

H3255 = system: H3255
How it was run: as §1

HARA = system: HARA
How it was run: as §1

HCC-366 = system: HCC-366
How it was run: as §1

HCC-78 = system: HCC-78
How it was run: as §1

LU99A = system: LU99A
How it was run: as §1

NCI-H1650 = system: NCI-H1650
How it was run: as §1

NCI-H1651 = system: NCI-H1651
How it was run: as §1

NCI-H1755 = system: NCI-H1755
How it was run: as §1

NCI-H1793 = system: NCI-H1793
How it was run: as §1

NCI-H2085 = system: NCI-H2085
How it was run: as §1

NCI-H2087 = system: NCI-H2087
How it was run: as §1

NCI-H23 = system: NCI-H23
How it was run: as §1

NCI-H3122 = system: NCI-H3122
How it was run: as §1

NCI-H322M = system: NCI-H322M
How it was run: as §1

NCI-H358 = system: NCI-H358
How it was run: as §1

NCI-H460 = system: NCI-H460
How it was run: as §1

NCI-H596 = system: NCI-H596
How it was run: as §1

NCI-H650 = system: NCI-H650
How it was run: as §1

PC-3 [JPC-3] = system: PC-3 [JPC-3]
How it was run: as §1

SK-LU-1 = system: SK-LU-1
How it was run: as §1

## Cc1csc(=NC2CCCCC2)n1/N=C/c1ccc(O)c(O)c1O [MIM1] + CS(=O)(=O)N1CCN(Cc2cc3nc(-c4cccc5[nH]ncc45)nc(N4CCOCC4)c3s2)CC1 [Pictilisib] (partner 1 µM)
201T; first compound 0.2 µM
  relative viability: 0.688
201T; first compound 0.6325 µM
  relative viability: 0.659
201T; first compound 2 µM
  relative viability: 0.645
201T; first compound 6.325 µM
  relative viability: 0.654
201T; first compound 20 µM
  relative viability: 0.61
COR-L23; first compound 0.2 µM
  relative viability: 0.692
COR-L23; first compound 0.6325 µM
  relative viability: 0.654
COR-L23; first compound 2 µM
  relative viability: 0.844
COR-L23; first compound 6.325 µM
  relative viability: 0.525
COR-L23; first compound 20 µM
  relative viability: 0.217
H3255; first compound 0.2 µM
  relative viability: 0.429
H3255; first compound 0.6325 µM
  relative viability: 0.54
H3255; first compound 2 µM
  relative viability: 0.459
H3255; first compound 6.325 µM
  relative viability: 0.478
H3255; first compound 20 µM
  relative viability: 0.416
HARA; first compound 0.2 µM
  relative viability: 0.333
HARA; first compound 0.6325 µM
  relative viability: 0.328
HARA; first compound 2 µM
  relative viability: 0.476
HARA; first compound 6.325 µM
  relative viability: 0.307
HARA; first compound 20 µM
  relative viability: 0.124
HCC-366; first compound 0.2 µM
  relative viability: 0.166
HCC-366; first compound 0.6325 µM
  relative viability: 0.153
HCC-366; first compound 2 µM
  relative viability: 0.122
HCC-366; first compound 6.325 µM
  relative viability: 0.183
HCC-366; first compound 20 µM
  relative viability: 0.0561
HCC-78; first compound 0.2 µM
  relative viability: 0.251
HCC-78; first compound 0.6325 µM
  relative viability: 0.23
HCC-78; first compound 2 µM
  relative viability: 0.228
HCC-78; first compound 6.325 µM
  relative viability: 0.34
HCC-78; first compound 20 µM
  relative viability: 0.185
LU99A; first compound 0.2 µM
  relative viability: 0.394
LU99A; first compound 0.6325 µM
  relative viability: 0.344
LU99A; first compound 2 µM
  relative viability: 0.303
LU99A; first compound 6.325 µM
  relative viability: 0.306
LU99A; first compound 20 µM
  relative viability: 0.233
NCI-H1650; first compound 0.2 µM
  relative viability: 0.595
NCI-H1650; first compound 0.6325 µM
  relative viability: 0.545
NCI-H1650; first compound 2 µM
  relative viability: 0.434
NCI-H1650; first compound 6.325 µM
  relative viability: 0.176
NCI-H1650; first compound 20 µM
  relative viability: 0.167
NCI-H1651; first compound 0.2 µM
  relative viability: 0.646
NCI-H1651; first compound 0.6325 µM
  relative viability: 0.646
NCI-H1651; first compound 2 µM
  relative viability: 0.75
NCI-H1651; first compound 6.325 µM
  relative viability: 0.542
NCI-H1651; first compound 20 µM
  relative viability: 0.298
NCI-H1755; first compound 0.2 µM
  relative viability: 0.465
NCI-H1755; first compound 0.6325 µM
  relative viability: 0.372
NCI-H1755; first compound 2 µM
  relative viability: 0.42
NCI-H1755; first compound 6.325 µM
  relative viability: 0.37
NCI-H1755; first compound 20 µM
  relative viability: 0.179
NCI-H1793; first compound 0.2 µM
  relative viability: 0.402
NCI-H1793; first compound 0.6325 µM
  relative viability: 0.314
NCI-H1793; first compound 2 µM
  relative viability: 0.344
NCI-H1793; first compound 6.325 µM
  relative viability: 0.34
NCI-H1793; first compound 20 µM
  relative viability: 0.217
NCI-H2085; first compound 0.2 µM
  relative viability: 0.441
NCI-H2085; first compound 0.6325 µM
  relative viability: 0.431
NCI-H2085; first compound 2 µM
  relative viability: 0.518
NCI-H2085; first compound 6.325 µM
  relative viability: 0.461
NCI-H2085; first compound 20 µM
  relative viability: 0.631
NCI-H2087; first compound 0.2 µM
  relative viability: 0.959
NCI-H2087; first compound 0.6325 µM
  relative viability: 0.588
NCI-H2087; first compound 2 µM
  relative viability: 0.969
NCI-H2087; first compound 6.325 µM
  relative viability: 0.584
NCI-H2087; first compound 20 µM
  relative viability: 0.315
NCI-H23; first compound 0.2 µM
  relative viability: 0.563
NCI-H23; first compound 2 µM
  relative viability: 0.517
NCI-H23; first compound 6.325 µM
  relative viability: 0.467
NCI-H23; first compound 20 µM
  relative viability: 0.192
NCI-H3122; first compound 0.2 µM
  relative viability: 0.644
NCI-H3122; first compound 0.6325 µM
  relative viability: 0.529
NCI-H3122; first compound 2 µM
  relative viability: 0.701
NCI-H3122; first compound 6.325 µM
  relative viability: 0.578
NCI-H3122; first compound 20 µM
  relative viability: 0.394
NCI-H322M; first compound 0.2 µM
  relative viability: 0.565
NCI-H322M; first compound 0.6325 µM
  relative viability: 0.497
NCI-H322M; first compound 2 µM
  relative viability: 0.511
NCI-H322M; first compound 6.325 µM
  relative viability: 0.477
NCI-H322M; first compound 20 µM
  relative viability: 0.698
NCI-H358; first compound 0.2 µM
  relative viability: 0.309
NCI-H358; first compound 0.6325 µM
  relative viability: 0.271
NCI-H358; first compound 2 µM
  relative viability: 0.254
NCI-H358; first compound 6.325 µM
  relative viability: 0.247
NCI-H358; first compound 20 µM
  relative viability: 0.262
NCI-H460; first compound 0.2 µM
  relative viability: 0.315
NCI-H460; first compound 0.6325 µM
  relative viability: 0.348
NCI-H460; first compound 2 µM
  relative viability: 0.249
NCI-H460; first compound 6.325 µM
  relative viability: 0.329
NCI-H460; first compound 20 µM
  relative viability: 0.274
NCI-H596; first compound 0.2 µM
  relative viability: 0.419
NCI-H596; first compound 0.6325 µM
  relative viability: 0.457
NCI-H596; first compound 2 µM
  relative viability: 0.406
NCI-H596; first compound 6.325 µM
  relative viability: 0.352
NCI-H596; first compound 20 µM
  relative viability: 0.402
NCI-H650; first compound 0.2 µM
  relative viability: 0.988
NCI-H650; first compound 0.6325 µM
  relative viability: 0.944
NCI-H650; first compound 2 µM
  relative viability: 0.987
NCI-H650; first compound 6.325 µM
  relative viability: 0.975
NCI-H650; first compound 20 µM
  relative viability: 0.505
PC-3 [JPC-3]; first compound 0.2 µM
  relative viability: 0.759
PC-3 [JPC-3]; first compound 0.6325 µM
  relative viability: 0.763
PC-3 [JPC-3]; first compound 2 µM
  relative viability: 0.707
PC-3 [JPC-3]; first compound 6.325 µM
  relative viability: 0.619
PC-3 [JPC-3]; first compound 20 µM
  relative viability: 0.459
SK-LU-1; first compound 0.2 µM
  relative viability: 0.636
SK-LU-1; first compound 0.6325 µM
  relative viability: 0.594
SK-LU-1; first compound 2 µM
  relative viability: 0.625
SK-LU-1; first compound 6.325 µM
  relative viability: 0.466
SK-LU-1; first compound 20 µM
  relative viability: 0.354
